Data as given in patent publication US11992499B2, “Quinoline derivatives for use in the treatment of inflammation diseases” (ABIVAX, priority 2018, dated 2024).
“Also recorded” adds a separate entry of the source.

Tests used:
[1] = system: STAM model of non-alcoholic steatohepatitis; test: STAM model of NASH: HE staining and NAFLD Activity score; assay type: in vivo, mice; set-up: key to NAFLD Activity score (mean ± SD): NAFLD Activity score per Kleiner et al. 2005 criteria
Experimental: NASH was induced in 48 male mice by a single subcutaneous injection of 200 μg streptozotocin (STZ, Sigma-Aldrich, USA) solution 2 days after birth and feeding with high fat diet (HFD, 57 kcal % fat, Cat #HFD32, CLEA Japan, Inc., Japan) after 4 weeks of age. Compound A was administered at 3 dose levels of 10, 20 and 40 mg/kg once daily from 6 to 9 weeks of age. Compound B was administered at a dose of 40 mg/kg once daily from 6 to 9 weeks of age. Telmisartan was administered at a dose of 10 mg/kg once daily from 6 to 9 weeks of age. For HE staining, sections were cut from paraffin blocks of liver tissue prefixed in Bouin's solution and stained with Lillie-Mayer's Hematoxylin (Muto Pure Chemicals Co., Ltd., Japan) and eosin solution (FUJIFILM Wako Pure Chemical Corporation). NAFLD Activity score (NAS) was calculated according to the criteria of Kleiner (Kleiner D E. et al., Hepatology, 2005; 41:1313). To visualize collagen deposition, Bouin's fixed liver sections were stained using picro-Sirius red solution (Waldeck, Germany). For quantitative analysis of fibrosis area, bright field images of Sirius red-stained sections were captured around the central vein using a digital camera (DFC295; Leica, Germany) at 200-fold magnification, and the positive areas in 5 fields/section were measured using ImageJ software (National Institute of Health, USA).

Sugen hypoxia model = test: Rat Sugen hypoxia model of pulmonary arterial hypertension: mean pulmonary pressure; assay type: in vivo; conditions: for Effect on mean pulmonary arterial pressure: rat Sugen hypoxia model, 70 mg/kg; for Mean Pulmonary Pressure: SuHx
Experimental: Animals from Groups 2 to 5 (see Table 10) receive a single subcutaneous injection of sugen (20 mg/kg in 2 mL/kg volume) solution (10 mg/mL) on Day 0 and returned to their cages. Animals from Group 1 receive one subcutaneous injection of DMSO at 2 mL/kg (vehicle for sugen) on Day 0 and returned to their respective cages.
Groups 2-5 are placed in cages for which the controlled air is adjusted to receive a FiO2 equivalent to 0.10 (10%) using a mixture of nitrogen and ambient air controlled by the ventilated cage system. They are kept under these hypoxic conditions for 21 days. While in hypoxia, cages are cleaned and changed once a week, exposing the animals to ambient oxygen levels for less than 10 minutes. They are exposed to ambient oxygen levels from Day 22 to Day 56. Group 1 animals remain in cages exposed to ambient oxygen (normoxic) levels for 56 days. The animals are observed on a daily basis for any changes in their behaviour and general health status.
Treatment with the compound A, sildenafil or vehicle is administered as of Day 22 (Groups 2-5) as scheduled and described in Table 10. The Groups 2-4 receives a single dose per day. The reference group 5 receives sildenafil twice a day. Food and water are given ad libitum. Daily observation of the behaviour and general health status of the animals is done. Weekly body weight is taken.
Surgical Instrumentation and Measurement of Hemodynamic and Functional Parameters in Efficacy Study Animals • 1. On the selected day of surgery, rats are anaesthetized with a mixture of 2 to 2.5% isoflurane USP (Abbot Laboratories, Montreal, Canada) in oxygen, and placed on a heating pad to maintain body temperature. • 2. Rats are tracheotomized and immediately ventilated by means of a positive-pressure rodent respirator set at ≈10 ml/kg body weight at a frequency of 65-70 strokes/min. • 3. Lead II ECG contact electrodes is placed on the rat to continuously monitor the ECG during the surgical procedure. • 4. A cannula connected to a pressure transducer is inserted into the left femoral artery to measure the arterial blood pressure. • 5. A cannula connected to a pressure transducer is inserted into the right atria through the right jugular vein to measure the right atria pressure. • 6. The heart is exposed through a sternotomy and a 20GA 1.16 in Insyte is introduced into the right ventricle and rapidly hooked up to a saline filled PE-50 catheter connected to a transducer. • 7. Following a few seconds of right ventricular pressure recording, the Insyte is further advanced into the pulmonary artery to allow PAP recording for an additional 60 seconds. • 8. Hemodynamic parameters are recorded continuously for the duration of the procedure or until loss of PAP signal. • 9. Following hemodynamic monitoring, chest cavity is further opened to expose the lung. The muscle over the trachea is dissected away to remove the lungs and heart. Harvested tissue is rinsed with PBS to remove any excess of blood before to be weighed. • 10. For the histology and casting of the lungs, the process is as follows; 1) eight (8) rats per group is reserved to assess the histology of the left lung and is therefore be treated as described in point 12 of this section 8.2; 2) Two (2) rats per group serve to enable quantitative characterization of the three-dimensional vascular structure of the left lung and therefore is treated as described in section 8.3 for casting of the left lung. • 11. For histology, the left lobe is inflated using a 10 mL syringe filled with fixative (10% NBF) with attached blunt tip needle (23 g). Needle tip is inserted into the trachea, held in place with tied suture while another syringe is tied to the pulmonary artery. The lung is inflated gently at physiological pressure (20-25 mmHg) until all lobes are fully, uniformly, and consistently expanded (not allowing fixative to ooze through lung surface). This provides optimal vascular and airway expansion without causing excessive tissue disruption. […]

[2] = system: STAM model of non-alcoholic steatohepatitis; test: STAM model of NASH: plasma ALT; assay type: in vivo, mice; conditions: for Plasma ALT (mean ± SD): n = 8
Experimental: NASH was induced in 48 male mice by a single subcutaneous injection of 200 μg streptozotocin (STZ, Sigma-Aldrich, USA) solution 2 days after birth and feeding with high fat diet (HFD, 57 kcal % fat, Cat #HFD32, CLEA Japan, Inc., Japan) after 4 weeks of age. Compound A was administered at 3 dose levels of 10, 20 and 40 mg/kg once daily from 6 to 9 weeks of age. Compound B was administered at a dose of 40 mg/kg once daily from 6 to 9 weeks of age. Telmisartan was administered at a dose of 10 mg/kg once daily from 6 to 9 weeks of age. For plasma biochemistry, non-fasting blood was collected in polypropylene tubes with anticoagulant (Novo-Heparin, Mochida Pharmaceutical Co. Ltd., Japan) and centrifuged at 1,000×g for 15 minutes at 4° C. The supernatant was collected and stored at −80° C. until use. Plasma ALT was measured by FUJI DRI-CHEM 7000 (Fujifilm, Japan).

[3] = summary statement, dose not stated
[4] = 10 mg/kg PO QD (Compound A low, Telmisartan groups)
[5] = 10 mg/kg PO QD, 6-9 wks of age (Compound A low, Telmisartan groups), n = 8
[6] = 20 mg/kg PO QD (Compound A middle group)
[7] = 20 mg/kg PO QD, 6-9 wks of age (Compound A middle group), n = 8
[8] = 40 mg/kg PO QD (Compound A high, Compound B groups)
[9] = 40 mg/kg PO QD, 6-9 wks of age (Compound A high, Compound B groups), n = 8

FC(F)(F)Oc1ccc(Nc2ccc3cccc(Cl)c3n2)cc1 [8-Chloro-N-(4-(trifluoromethoxy)phenyl)quinolin-2-amine]
NAS compared with the Vehicle group [1, 3]: decreasing trend | Effect on mean pulmonary arterial pressure (Sugen hypoxia model): tendency to decrease

FC(F)(F)Oc1ccc(Nc2ccc3cccc(Cl)c3n2)cc1 [Compound A, 8-Chloro-N-(4-(trifluoromethoxy)phenyl)quinolin-2-amine]
NAS compared with the Vehicle group [1, 4]: tended to decrease; also recorded: decreasing trend | Hepatocyte ballooning score 0 (None), number of mice [1, 5]: 3 | Hepatocyte ballooning score 1 (Few balloon cells), number of mice [1, 5]: 2 | Hepatocyte ballooning score 2 (Many cells/prominent ballooning), number of mice [1, 5]: 3 | Lobular inflammation score 2 (2-4 foci/200×), number of mice [1, 5]: 7 | Lobular inflammation score 3 (>4 foci/200×), number of mice [1, 5]: 1 | NAFLD Activity score (mean ± SD) [1, 5]: 3.6 ± 1.1 | Steatosis score 0 (<5%), number of mice [1, 5]: 4 | Steatosis score 1 (5-33%), number of mice [1, 5]: 4 | NAS compared with the Vehicle group [1, 6]: tended to decrease; also recorded: decreasing trends | Hepatocyte ballooning score 0 (None), number of mice [1, 7]: 3 | Hepatocyte ballooning score 1 (Few balloon cells), number of mice [1, 7]: 3 | Hepatocyte ballooning score 2 (Many cells/prominent ballooning), number of mice [1, 7]: 2 | Lobular inflammation score 2 (2-4 foci/200×), number of mice [1, 7]: 6 | Lobular inflammation score 3 (>4 foci/200×), number of mice [1, 7]: 2 | NAFLD Activity score (mean ± SD) [1, 7]: 3.4 ± 1.2 | Steatosis score 0 (<5%), number of mice [1, 7]: 6 | Steatosis score 1 (5-33%), number of mice [1, 7]: 2 | NAS compared with the Vehicle group [1, 8]: tended to decrease; also recorded: decreasing trend | Hepatocyte ballooning score 0 (None), number of mice [1, 9]: 5 | Hepatocyte ballooning score 1 (Few balloon cells), number of mice [1, 9]: 2 | Hepatocyte ballooning score 2 (Many cells/prominent ballooning), number of mice [1, 9]: 1 | Lobular inflammation score 1 (<2 foci/200×), number of mice [1, 9]: 1 | Lobular inflammation score 2 (2-4 foci/200×), number of mice [1, 9]: 2 | Lobular inflammation score 3 (>4 foci/200×), number of mice [1, 9]: 5 | NAFLD Activity score (mean ± SD) [1, 9]: 3.4 ± 1.3 | Steatosis score 0 (<5%), number of mice [1, 9]: 5 | Steatosis score 1 (5-33%), number of mice [1, 9]: 3 | Overall effect in this NASH model ([1]; conclusion of the study): potential anti-NAS and anti-fibrosis effects | NAS compared with the Vehicle group [1, 3]: decreasing trends | Mean Pulmonary Pressure (Sugen hypoxia model; female rats, 70 mg/kg QD gavage Day 22 to Day 56): 24.1 mmHg | Mean Pulmonary Pressure (Sugen hypoxia model; female rats, 120 mg/kg QD gavage Day 22 to Day 56): 34.4 mmHg | Mean Pulmonary Pressure (Sugen hypoxia model; male rats, 70 mg/kg QD gavage Day 22 to Day 56): 26.8 mmHg | Mean Pulmonary Pressure (Sugen hypoxia model; male rats, 120 mg/kg QD gavage Day 22 to Day 56): 33.6 mmHg | Effect on mean pulmonary arterial pressure (Sugen hypoxia model): tendency to decrease | Plasma ALT level compared with the Vehicle group [2, 4]: tended to increase; also recorded: increasing trend | Plasma ALT (mean ± SD) ([2]; 10 mg/kg PO QD, 6-9 wks of age (Compound A low, Telmisartan groups)): 75 ± 31 U/L | Plasma ALT level compared with the Vehicle group [2, 6]: tended to increase; also recorded: increasing trend | Plasma ALT (mean ± SD) ([2]; 20 mg/kg PO QD, 6-9 wks of age (Compound A middle group)): 91 ± 15 U/L | Plasma ALT level compared with the Vehicle group [2, 8]: significant increase | Plasma ALT (mean ± SD) ([2]; 40 mg/kg PO QD, 6-9 wks of age (Compound A high, Compound B groups)): 133 ± 100 U/L
